Laboratory results taken from patent publication US12258355B2, “Probes for imaging huntingtin protein” (CHDI Foundation, Inc., priority 2014, dated 2025).

Target: T1, Q46 protein aggregates (Homo sapiens, UniProt P42858)
T1 construct: fused on or other part: GST at the N-terminus, cut off with thrombin before the test to start aggregation; The wells held aggregated Q46 without GST
Experiment: Q46 radioligand binding assay (RBA)
Details: 10 nM ligand [3H3]MK-3328
Method: Q46 Radioligand Binding Assay
For radioligand binding assays (RBA) GST-Q46 protein was generated based on a previous publication (Scherzinger et al. Cell, Vol. 90, 549-558, Aug. 8, 1997). For experiments 33 μM GST-Q46 was incubated with 150 μg/mL thrombin in assay buffer (150 mM NaCl, 50 mM Tris pH 8.0) and 2 mM CaCl2 for 16 hours at 37° C. Aggregated Q46 was pelleted by centrifugation for 5 minutes at 13,000 rpm in a bench top centrifuge and re-dissolved in the same volume of assay buffer. Test compounds were prepared by titration in DMSO at 11 concentrations from 33 μM to 1 nM. For the RBA, Q46 protein aggregates and test compounds were pre-incubated in assay buffer for 20 minutes at room temperature, in 140 μL/well in a 96-well plate (pp, round bottom). Then, ligand was added in 10 μL/well and incubated for 60 minutes at 37° C. Final assay concentrations were 1 μM to 30 pM test compound, 5 μM Q46 protein (equivalent monomer concentration) and 10 nM ligand [^3H3]MK-3328 (Harrision et al., ACS Med. Chem. Lett., 2 (2011), pp 498-502). Samples were transferred onto GF/B filter plates and washed 2× with 200 μL PBS using a Filtermate Harvester. After drying filter plates for 1 hour at 37° C., the back of the plates were sealed with foil and 30 μL/well scintillation fluid (Packard MicroScint 40) added, incubated for 15 minutes in the dark and counted in a TopCount reader. For analysis, replicate data from independent assay plates were normalized towards 0% and 100% inhibition using control wells of vehicle (0% inhibition) and 3 μM unlabelled MK-3328 (100% inhibition). IC50 values were determined with a sigmoidal inhibition model with four variables (top, bottom, slope, IC50) in a global fit using the normalized replicate data.

T1 sequence (P42858 with tags, fused parts or gaps with the stated changes, form open): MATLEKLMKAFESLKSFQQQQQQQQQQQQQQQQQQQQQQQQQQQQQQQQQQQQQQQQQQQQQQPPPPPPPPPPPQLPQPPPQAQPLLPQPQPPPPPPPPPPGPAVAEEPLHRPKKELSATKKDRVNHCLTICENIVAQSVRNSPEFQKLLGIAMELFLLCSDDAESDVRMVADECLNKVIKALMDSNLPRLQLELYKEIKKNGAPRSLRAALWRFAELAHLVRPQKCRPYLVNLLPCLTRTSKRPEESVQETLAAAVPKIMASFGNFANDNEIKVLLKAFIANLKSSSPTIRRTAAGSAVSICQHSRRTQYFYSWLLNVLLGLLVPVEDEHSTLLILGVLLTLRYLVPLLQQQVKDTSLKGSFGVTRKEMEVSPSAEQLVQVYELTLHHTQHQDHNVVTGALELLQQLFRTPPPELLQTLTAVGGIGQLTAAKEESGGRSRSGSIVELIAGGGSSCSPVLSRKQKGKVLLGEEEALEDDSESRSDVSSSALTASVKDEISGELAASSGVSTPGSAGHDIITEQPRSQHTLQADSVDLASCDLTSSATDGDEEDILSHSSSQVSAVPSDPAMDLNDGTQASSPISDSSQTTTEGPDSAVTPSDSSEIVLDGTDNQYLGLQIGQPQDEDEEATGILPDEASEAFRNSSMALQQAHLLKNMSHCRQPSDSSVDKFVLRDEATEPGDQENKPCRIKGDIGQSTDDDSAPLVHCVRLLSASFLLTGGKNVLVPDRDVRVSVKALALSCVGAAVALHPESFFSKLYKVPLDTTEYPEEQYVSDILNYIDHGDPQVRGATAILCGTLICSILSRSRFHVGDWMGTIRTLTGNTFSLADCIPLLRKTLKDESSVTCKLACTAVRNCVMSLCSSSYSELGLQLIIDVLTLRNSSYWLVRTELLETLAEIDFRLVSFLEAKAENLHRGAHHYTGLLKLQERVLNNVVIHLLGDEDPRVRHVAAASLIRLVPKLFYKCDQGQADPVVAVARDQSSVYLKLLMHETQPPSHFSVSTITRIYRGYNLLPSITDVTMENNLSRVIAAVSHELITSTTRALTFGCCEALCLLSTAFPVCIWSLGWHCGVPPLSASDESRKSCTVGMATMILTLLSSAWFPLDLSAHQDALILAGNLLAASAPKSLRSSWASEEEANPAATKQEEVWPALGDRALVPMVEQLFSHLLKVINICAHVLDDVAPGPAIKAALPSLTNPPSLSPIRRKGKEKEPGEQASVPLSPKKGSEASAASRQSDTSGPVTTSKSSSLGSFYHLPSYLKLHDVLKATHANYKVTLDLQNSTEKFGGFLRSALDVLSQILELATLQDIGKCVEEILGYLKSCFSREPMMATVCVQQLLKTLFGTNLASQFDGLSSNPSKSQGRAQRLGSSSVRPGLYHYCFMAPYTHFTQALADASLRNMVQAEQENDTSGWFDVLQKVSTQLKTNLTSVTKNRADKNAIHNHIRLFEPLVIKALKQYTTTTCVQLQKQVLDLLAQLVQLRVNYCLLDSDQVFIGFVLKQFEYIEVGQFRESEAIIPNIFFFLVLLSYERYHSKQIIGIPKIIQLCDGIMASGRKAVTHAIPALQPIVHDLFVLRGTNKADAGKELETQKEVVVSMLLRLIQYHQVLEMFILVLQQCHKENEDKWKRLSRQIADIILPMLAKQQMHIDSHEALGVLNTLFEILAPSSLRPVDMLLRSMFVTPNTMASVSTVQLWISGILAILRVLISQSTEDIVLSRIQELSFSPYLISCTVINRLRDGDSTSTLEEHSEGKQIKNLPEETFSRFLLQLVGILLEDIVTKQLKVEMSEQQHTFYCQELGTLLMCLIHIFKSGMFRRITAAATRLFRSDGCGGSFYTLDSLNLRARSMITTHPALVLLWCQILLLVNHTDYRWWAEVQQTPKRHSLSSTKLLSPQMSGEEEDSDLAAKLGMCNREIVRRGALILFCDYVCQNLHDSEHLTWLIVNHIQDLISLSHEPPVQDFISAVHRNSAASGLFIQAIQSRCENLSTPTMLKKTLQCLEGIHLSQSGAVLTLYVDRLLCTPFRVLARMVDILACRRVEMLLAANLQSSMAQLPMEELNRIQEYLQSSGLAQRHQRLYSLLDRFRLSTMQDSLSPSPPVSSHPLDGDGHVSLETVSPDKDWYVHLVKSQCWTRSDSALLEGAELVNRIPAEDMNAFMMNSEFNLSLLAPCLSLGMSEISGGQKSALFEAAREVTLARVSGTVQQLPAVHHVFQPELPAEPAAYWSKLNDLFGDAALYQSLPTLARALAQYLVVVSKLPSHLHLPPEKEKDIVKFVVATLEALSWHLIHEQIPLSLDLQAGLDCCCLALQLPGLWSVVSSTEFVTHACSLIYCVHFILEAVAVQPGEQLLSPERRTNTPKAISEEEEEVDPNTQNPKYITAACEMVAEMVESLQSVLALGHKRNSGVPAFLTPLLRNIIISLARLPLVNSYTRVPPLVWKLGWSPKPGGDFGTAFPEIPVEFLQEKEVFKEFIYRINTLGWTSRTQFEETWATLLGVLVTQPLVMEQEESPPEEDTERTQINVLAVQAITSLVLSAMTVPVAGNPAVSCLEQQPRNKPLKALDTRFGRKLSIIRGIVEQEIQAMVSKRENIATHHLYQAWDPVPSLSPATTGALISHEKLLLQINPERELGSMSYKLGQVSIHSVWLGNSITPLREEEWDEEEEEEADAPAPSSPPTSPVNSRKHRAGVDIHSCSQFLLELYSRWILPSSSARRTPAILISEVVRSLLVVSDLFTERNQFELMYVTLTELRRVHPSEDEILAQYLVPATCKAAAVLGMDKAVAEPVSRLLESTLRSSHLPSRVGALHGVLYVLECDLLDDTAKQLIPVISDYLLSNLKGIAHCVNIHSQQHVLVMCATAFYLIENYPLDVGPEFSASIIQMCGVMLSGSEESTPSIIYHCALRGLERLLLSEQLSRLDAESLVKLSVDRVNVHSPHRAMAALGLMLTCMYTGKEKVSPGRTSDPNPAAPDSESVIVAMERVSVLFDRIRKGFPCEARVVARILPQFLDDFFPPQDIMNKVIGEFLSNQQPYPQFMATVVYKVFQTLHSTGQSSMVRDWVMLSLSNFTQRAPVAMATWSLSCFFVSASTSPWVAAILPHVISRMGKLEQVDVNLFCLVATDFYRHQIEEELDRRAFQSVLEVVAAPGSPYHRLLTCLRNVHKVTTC

IC50 | Compound
< 100 nM | C(#Cc1cnc2oc(-c3cccnc3)nc2c1)c1cccnc1 [3-{6-[2-(pyridin-3-yl)ethynyl]-[1,3]oxazolo[5,4-b]pyridin-2-yl}pyridine]
< 100 nM | O=C(Nc1ccc2oc(-c3cccnc3)nc2c1)c1cccc(Oc2ccccc2)c1 [3-phenoxy-N-[2-(pyridin-3-yl)-1,3-benzoxazol-5-yl]benzamide]
< 100 nM | COc1ccnc(C(=O)Nc2ccc3oc(-c4cccnc4)nc3c2)c1 [4-methoxy-N-[2-(pyridin-3-yl)-1,3-benzoxazol-5-yl]pyridine-2-carboxamide]
< 100 nM | COc1cnc(COc2ccc3[nH]c(-c4cccnc4)nc3c2)cn1 [5-[(5-methoxypyrazin-2-yl)methoxy]-2-(pyridin-3-yl)-1H-1,3-benzodiazole]
< 100 nM | O=C(Nc1ccc2oc(-c3cccnc3)nc2c1)c1ccc(C(F)(F)F)nc1 [N-[2-(pyridin-3-yl)-1,3-benzoxazol-5-yl]-6-(trifluoromethyl)pyridine-3-carboxamide]
< 100 nM | CNC(=O)c1ccc(-c2nc3cc(OCc4ccc(OC)cn4)ccc3o2)cn1 [5-{5-[(5-methoxypyridin-2-yl)methoxy]-1,3-benzoxazol-2-yl}-N-methylpyridine-2-carboxamide]
< 100 nM | COc1ccc(COC(=O)Nc2ccc3oc(-c4cccnc4)nc3c2)nc1 [(5-methoxypyridin-2-yl)methyl N-[2-(pyridin-3-yl)-1,3-benzoxazol-5-yl]carbamate]
< 100 nM | O=C(Nc1ccc2oc(-c3cccnc3)nc2c1)c1ccc(-c2ncccn2)cc1 [N-[2-(pyridin-3-yl)-1,3-benzoxazol-5-yl]-4-(pyrimidin-2-yl)benzamide]
< 100 nM | COc1ccc(COc2ccc3oc(-c4ccc(=O)[nH]c4)nc3c2)nc1 [5-{5-[(5-methoxypyridin-2-yl)methoxy]-1,3-benzoxazol-2-yl}-1,2-dihydropyridin-2-one]
100 to 500 nM | COc1ccc(COc2ccc3oc(N4CC(F)C4)nc3c2)nc1 [2-(3-fluoroazetidin-1-yl)-5-[(5-methoxypyridin-2-yl)methoxy]-1,3-benzoxazole]
100 to 500 nM | c1ccc(OCCOc2ccc3oc(-c4cccnc4)nc3c2)nc1 [5-[2-(pyridin-2-yloxy)ethoxy]-2-(pyridin-3-yl)-1,3-benzoxazole]
< 100 nM | O=C(Nc1ccc2oc(-c3cccnc3)nc2c1)c1ccc2nccnc2c1 [N-[2-(pyridin-3-yl)-1,3-benzoxazol-5-yl]quinoxaline-6-carboxamide]
100 to 500 nM | COc1ccc(-c2ccc3oc(-c4cccnc4)nc3c2)nc1 [5-(5-methoxypyridin-2-yl)-2-(pyridin-3-yl)-1,3-benzoxazole]
< 100 nM | N#Cc1ccc(C(=O)Nc2ccc3oc(-c4cccnc4)nc3c2)cc1 [4-cyano-N-[2-(pyridin-3-yl)-1,3-benzoxazol-5-yl]benzamide]
< 100 nM | COc1ccc(COc2cnc3oc(-c4cnccn4)nc3c2)nc1 [2-{6-[(5-methoxypyridin-2-yl)methoxy]-[1,3]oxazolo[5,4-b]pyridin-2-yl]pyrazine]
100 to 500 nM | Cn1cc(COc2ccc3oc(-c4cccnc4)nc3c2)cn1 [5-[(1-methyl-1H-pyrazol-4-yl)methoxy]-2-(pyridin-3-yl)-1,3-benzoxazole]
< 100 nM | Cn1nc(C(=O)Nc2ccc3oc(-c4ccc(=O)n(C)n4)nc3c2)ccc1=O [1-methyl-N-[2-(1-methyl-6-oxo-1,6-dihydropyridazin-3-yl)-1,3-benzoxazol-5-yl]-6-oxo-1,6-dihydropyridazine-3-carboxamide]
< 100 nM | COc1ccc(COc2ccc3oc(-n4ccnc4)nc3c2)nc1 [2-(1H-imidazol-1-yl)-5-[(5-methoxypyridin-2-yl)methoxy]-1,3-benzoxazole]
100 to 500 nM | CNCc1ccc(COc2ccc3oc(-c4cccnc4)nc3c2)cc1 [methyl({[4-({[2-(pyridin-3-yl)-1,3-benzoxazol-5-yl]oxy}methyl)phenyl]methyl})amine]
100 to 500 nM | Cn1cc(-c2nc3cc(OCc4cnccn4)cnc3o2)cn1 [2-({[2-(1-methyl-1H-pyrazol-4-yl)-[1,3]oxazolo[5,4-b]pyridin-6-yl]oxy}methyl)pyrazine]
100 to 500 nM | COc1ccc(COc2ccc3oc(C4CCN(C)CC4)nc3c2)nc1 [5-[(5-methoxypyridin-2-yl)methoxy]-2-(1-methylpiperidin-4-yl)-1,3-benzoxazole]
< 100 nM | O=C(COc1ccccc1)Nc1ccc2oc(-c3cccnc3)nc2c1 [2-phenoxy-N-[2-(pyridin-3-yl)-1,3-benzoxazol-5-yl]acetamide]

IC50 | Compound
< 100 nM | O=C(Nc1ccc2oc(-c3cccnc3)nc2c1)c1ccc2c(c1)OCO2 [N-[2-(pyridin-3-yl)-1,3-benzoxazol-5-yl]-2H-1,3-benzodioxole-5-carboxamide]
100 to 500 nM | c1ccc(COc2ccc3oc(-c4cccnc4)nc3c2)nc1 [5-(pyridin-2-ylmethoxy)-2-(pyridin-3-yl)-1,3-benzoxazole]
< 100 nM | COc1cnc(-c2ccc3oc(-c4cccnc4)nc3c2)cn1 [5-(5-methoxypyrazin-2-yl)-2-(pyridin-3-yl)-1,3-benzoxazole]
< 100 nM | COCCOc1cncc(-c2nc3cc(OCc4ccc(OC)cn4)ccc3o2)c1 [2-[5-(2-methoxyethoxy)pyridin-3-yl]-5-[(5-methoxypyridin-2-yl)methoxy]-1,3-benzoxazole]
100 to 500 nM | COc1ccc(COc2ccc3oc(-c4cn(C)cn4)nc3c2)nc1 [5-[(5-methoxypyridin-2-yl)methoxy]-2-(1-methyl-1H-imidazol-4-yl)-1,3-benzoxazole]
< 100 nM | CN(C)CCn1cc(COc2ccc3oc(-c4ccncc4C#N)cc3c2)cn1 [4-[5-({1-[2-(dimethylamino)ethyl]-1H-pyrazol-4-yl}methoxy)-1-benzofuran-2-yl]pyridine-3-carbonitrile]
< 100 nM | COc1ccc(COc2ccc3oc(-c4ccc(=O)n(C)c4)nc3c2)nc1 [5-{5-[(5-methoxypyridin-2-yl)methoxy]-1,3-benzoxazol-2-yl}-1-methyl-1,2-dihydropyridin-2-one]
< 100 nM | Cc1cncc(Oc2ccc(C(=O)Nc3ccc4oc(-c5cccnc5)nc4c3)cc2)n1 [4-[(6-methylpyrazin-2-yl)oxy]-N-[2-(pyridin-3-yl)-1,3-benzoxazol-5-yl]benzamide]
< 100 nM | COc1ccc(C(=O)Nc2ccc3oc(-c4cccc(C)c4)nc3c2)nc1 [5-methoxy-N-[2-(3-methylphenyl)-1,3-benzoxazol-5-yl]pyridine-2-carboxamide]
< 100 nM | N#Cc1ccncc1-c1cc2cc(OCc3cccnc3)ccc2o1 [3-[5-(pyridin-3-ylmethoxy)-1-benzofuran-2-yl]pyridine-4-carbonitrile]
< 100 nM | COc1ccnc(C(=O)Nc2ccc3oc(-c4ccc(=O)n(C)n4)nc3c2)c1 [4-methoxy-N-[2-(1-methyl-6-oxo-1,6-dihydropyridazin-3-yl)-1,3-benzoxazol-5-yl]pyridine-2-carboxamide]
< 100 nM | O=C(Nc1ccc2oc(-c3cccnc3)nc2c1)c1ccc2ccccc2n1 [N-[2-(pyridin-3-yl)-1,3-benzoxazol-5-yl]quinoline-2-carboxamide]
< 100 nM | COc1ccc(COc2ccc3oc(-c4ccncc4)cc3c2)nc1 [4-{5-[(5-methoxypyridin-2-yl)methoxy]-1-benzofuran-2-yl}pyridine]
< 100 nM | COc1ccc(COc2ccc3oc(-c4ccc(-c5ncccn5)cc4)nc3c2)nc1 [5-[(5-methoxypyridin-2-yl)methoxy]-2-[4-(pyrimidin-2-yl)phenyl]-1,3-benzoxazole]
< 100 nM | Brc1ccc(COc2cnc3oc(-c4cccnc4)nc3c2)nc1 [3-{6-[(5-bromopyridin-2-yl)methoxy]-[1,3]oxazolo[5,4-b]pyridin-2-yl}pyridine]
< 100 nM | COc1cnc(COc2cnc3oc(-c4cccnc4)nc3c2)nc1 [5-methoxy-2-({[2-(pyridin-3-yl)-[1,3]oxazolo[5,4-b]pyridin-6-yl]oxy}methyl)pyrimidine]
100 to 500 nM | COc1ccc2c(c1)CCN(c1ccc3oc(-c4cccnc4)nc3c1)C2=O [6-methoxy-2-[2-(pyridin-3-yl)-1,3-benzoxazol-5-yl]-1,2,3,4-tetrahydroisoquinolin-1-one]
100 to 500 nM | OC(Cc1ccc2oc(-c3cccnc3)nc2c1)c1ccccn1 (stereo not shown) [1-(pyridin-2-yl)-2-[2-(pyridin-3-yl)-1,3-benzoxazol-5-yl]ethan-1-ol]
100 to 500 nM | O=C(Cc1ccc2oc(-c3cccnc3)nc2c1)c1ccccn1 [1-(pyridin-2-yl)-2-[2-(pyridin-3-yl)-1,3-benzoxazol-5-yl]ethan-1-one]
< 100 nM | COc1ccc(COc2ccc3oc(-c4cccnc4)nc3c2)cc1 [5-[(4-methoxyphenyl)methoxy]-2-(pyridin-3-yl)-1,3-benzoxazole]
< 100 nM | COc1ccc(COc2ccc3oc([C@H]4Cc5ccccc5O4)nc3c2)nc1 [2-[(2R)-2,3-dihydro-1-benzofuran-2-yl]-5-[(5-methoxypyridin-2-yl)methoxy]-1,3-benzoxazole]
